Assay results from ChEMBL document CHEMBL5620341, “CSF1R inhibitors are emerging immunotherapeutic drugs for cancer treatment” (Eur J Med Chem, 2023).
In brackets after ≈: the same amount, converted by molar mass. Blank lines part the entries; values can stand above or below the compound they belong to.

Tests used:
[1] = target: Platelet-derived growth factor receptor beta (Homo sapiens, UniProt P09619); experiment: Inhibition of PDGFRbeta (unknown origin)
[2] = target: T1, Vascular endothelial growth factor receptor 2 (Homo sapiens, UniProt P35968); experiment: Inhibition of human VEGFR2 in presence of ATP by mobility shift assay
[3] = test system: NFS-60; experiment: Growth inhibition of mouse NFS-60 cells; type: functional
[4] = Metabolic stability in mouse liver microsomes assessed as half life; type: ADME, Microsome
[5] = Unbound fraction in mouse plasma; type: ADME, cell-free
[6] = Solubility of compound in PBS at pH 7.4; type: physicochemical
[7] = target: T2, Macrophage colony-stimulating factor 1 receptor (Homo sapiens, UniProt P07333); experiment: Binding affinity to CSF1R (unknown origin) assessed as dissociation constant
[8] = target: Receptor-type tyrosine-protein kinase FLT3 (Homo sapiens, UniProt P36888); experiment: Binding affinity to human FLT3 assessed as dissociation constant
[9] = Oral bioavailability in CD-1 mouse at 3 mg/kg; type: ADME, organism-based; conditions: in vivo
[10] = Oral bioavailability in Sprague-Dawley rat at 10 mg/kg by LC-MS/MS analysis; type: ADME, organism-based; conditions: in vivo
[11] = Half life in Sprague-Dawley rat at 10 mg/kg, po or 1 mg/kg, iv by LC-MS/MS analysis; type: ADME, organism-based; conditions: in vivo
[12] = Inhibition of FGFR (unknown origin); design: species or system Homo sapiens
[13] = test system: EMT6; experiment: Antitumor activity against mouse EMT6 cells allografted in BALB/c mouse assessed as reduction in tumor growth inhibition administered via oral gavage relative to control; type: functional
[14] = Inhibition of human CSF1R-autoinhibited by discoverX kinome scan assay
[15] = target: T2, Macrophage colony-stimulating factor 1 receptor; experiment: Inhibition of CSF1R (unknown origin) preincubated for 60 mins measured after 1 hr by ADP-Glo assay
[16] = target: T3, Macrophage colony-stimulating factor 1 receptor (Mus musculus, UniProt P09581); experiment: Inhibition of CSF1R in mouse BMDM cells; type: cell-based
T3 sequence (P09581 whole entry): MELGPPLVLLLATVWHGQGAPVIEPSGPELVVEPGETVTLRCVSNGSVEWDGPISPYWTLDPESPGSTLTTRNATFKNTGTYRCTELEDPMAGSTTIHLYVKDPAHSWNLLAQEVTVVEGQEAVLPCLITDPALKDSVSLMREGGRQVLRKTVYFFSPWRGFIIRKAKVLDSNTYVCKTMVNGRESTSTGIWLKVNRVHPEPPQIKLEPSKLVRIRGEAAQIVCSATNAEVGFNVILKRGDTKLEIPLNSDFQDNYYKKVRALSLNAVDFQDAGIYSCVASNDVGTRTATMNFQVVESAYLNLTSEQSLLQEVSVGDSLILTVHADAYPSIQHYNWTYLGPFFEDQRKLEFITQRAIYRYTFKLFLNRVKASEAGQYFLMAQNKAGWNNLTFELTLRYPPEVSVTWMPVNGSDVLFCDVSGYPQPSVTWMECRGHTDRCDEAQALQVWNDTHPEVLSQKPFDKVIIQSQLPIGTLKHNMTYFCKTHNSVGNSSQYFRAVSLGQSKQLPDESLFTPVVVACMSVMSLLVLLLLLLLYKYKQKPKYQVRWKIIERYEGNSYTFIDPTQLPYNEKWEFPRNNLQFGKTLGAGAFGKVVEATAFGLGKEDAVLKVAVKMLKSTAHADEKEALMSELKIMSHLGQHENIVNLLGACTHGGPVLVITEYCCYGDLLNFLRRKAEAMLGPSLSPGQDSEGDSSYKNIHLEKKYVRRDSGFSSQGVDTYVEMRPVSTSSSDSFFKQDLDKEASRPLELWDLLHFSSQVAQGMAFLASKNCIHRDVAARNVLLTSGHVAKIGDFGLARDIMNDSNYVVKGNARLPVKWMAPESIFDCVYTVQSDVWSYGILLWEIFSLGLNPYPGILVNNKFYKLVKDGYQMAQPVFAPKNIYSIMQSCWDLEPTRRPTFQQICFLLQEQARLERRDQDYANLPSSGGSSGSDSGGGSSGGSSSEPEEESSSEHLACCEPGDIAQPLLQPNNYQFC

[17] = test system: ID8; experiment: Cytotoxicity against mouse ID8 cells; type: functional
[18] = target: Mast/stem cell growth factor receptor Kit (Homo sapiens, UniProt P10721); experiment: Inhibition of c-KIT (unknown origin) using TK as substrate incubated for 50 mins in presence of ATP by HTRF method
[19] = target: Receptor-type tyrosine-protein kinase FLT3 (Homo sapiens, UniProt P36888, ITD); experiment: Inhibition of FLT3-ITD mutant phosphorylation in human HEK-293T cells incubated for 2 hrs; type: cell-based
[20] = test system: NFS-60; experiment: Cytotoxicity against mouse NFS-60 cells assessed as cell growth inhibition incubated for 72 hrs by Cell titer-glo assay; conditions: NFS-60, 72 h
[21] = test system: NFS-60; experiment: Growth inhibition of mouse NFS-60 cells incubated for 72 hrs by Cell titer-glo assay; type: functional
[22] = Cytotoxicity against mouse RAW264.7 cells assessed as reduction in cell viability incubated for 48 hrs by MTT assay; type: toxicity, cell-based
[23] = target: T1, Vascular endothelial growth factor receptor 2; experiment: Inhibition of KDR (unknown origin) using peptide as substrate incubated for 90 mins in presence of ATP by HTRF method
[24] = target: RAF proto-oncogene serine/threonine-protein kinase (Homo sapiens, UniProt P04049); experiment: Inhibition of c-RAF (unknown origin)
[25] = target: Tyrosine-protein kinase Lck (Homo sapiens, UniProt P06239); experiment: Inhibition of LCK (unknown origin)
[26] = target: T3, Macrophage colony-stimulating factor 1 receptor; experiment: Inhibition of CSF1R autophosphorylation in mouse RAW264.7 cells measured after 4 hrs by Western blot analysis; type: cell-based
[27] = test system: CT26; experiment: Antiproliferative activity against mouse CT26 cells assessed as inhibition of cell growth measured after 6 days by MTT assay; type: functional, cell-based; conditions: CT26, 144 h
[28] = target: T4, Tyrosine-protein kinase Mer (Homo sapiens, UniProt Q12866); experiment: Inhibition of human MERTK by discoverX kinome scan assay
T4 sequence (Q12866 whole entry): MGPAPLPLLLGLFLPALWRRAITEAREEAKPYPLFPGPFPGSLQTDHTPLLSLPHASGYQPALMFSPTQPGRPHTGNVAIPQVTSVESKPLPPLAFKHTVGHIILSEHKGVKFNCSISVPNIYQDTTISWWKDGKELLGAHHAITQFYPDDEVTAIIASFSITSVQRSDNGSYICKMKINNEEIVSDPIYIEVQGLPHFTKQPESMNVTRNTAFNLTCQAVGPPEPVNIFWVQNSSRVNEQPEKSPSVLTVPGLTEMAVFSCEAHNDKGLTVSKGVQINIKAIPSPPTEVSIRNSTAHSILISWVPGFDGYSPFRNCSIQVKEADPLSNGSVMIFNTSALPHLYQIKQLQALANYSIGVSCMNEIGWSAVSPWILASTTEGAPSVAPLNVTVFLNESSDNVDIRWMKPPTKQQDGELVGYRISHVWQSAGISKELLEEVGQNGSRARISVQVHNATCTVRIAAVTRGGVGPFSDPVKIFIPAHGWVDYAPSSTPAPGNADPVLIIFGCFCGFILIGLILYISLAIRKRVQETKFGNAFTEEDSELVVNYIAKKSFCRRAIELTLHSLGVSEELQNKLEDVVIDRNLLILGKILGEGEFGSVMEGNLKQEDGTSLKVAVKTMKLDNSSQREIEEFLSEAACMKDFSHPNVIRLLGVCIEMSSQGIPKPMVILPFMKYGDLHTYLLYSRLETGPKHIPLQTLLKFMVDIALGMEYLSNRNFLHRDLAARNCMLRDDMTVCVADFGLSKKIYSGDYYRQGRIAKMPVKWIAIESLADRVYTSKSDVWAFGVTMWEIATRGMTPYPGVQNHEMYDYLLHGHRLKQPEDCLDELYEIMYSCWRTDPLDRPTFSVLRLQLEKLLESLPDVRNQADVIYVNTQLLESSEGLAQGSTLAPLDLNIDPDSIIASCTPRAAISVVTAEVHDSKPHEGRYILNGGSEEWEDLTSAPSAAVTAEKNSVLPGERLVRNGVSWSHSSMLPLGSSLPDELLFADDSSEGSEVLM

[29] = target: Vascular endothelial growth factor receptor 1 (Homo sapiens, UniProt P17948); experiment: Inhibition of VEGFR1 (unknown origin)
[30] = target: T1, Vascular endothelial growth factor receptor 2; experiment: Inhibition of VEGFR2 (unknown origin)
[31] = target: T3, Macrophage colony-stimulating factor 1 receptor; experiment: Inhibition of CSF1R in mouse RAW264.7 cells assessed as reduction in AKT phosphorylation measured after 4 hrs by Western blot analysis; type: cell-based
[32] = test system: HUVEC; experiment: Antiproliferative activity against VEGF stimulated HUVEC cells assessed as reduction in cell viability incubated for 72 hrs by MTT assay; conditions: Homo sapiens
[33] = test system: HUVEC; experiment: Antiproliferative activity against FGF stimulated HUVEC cells assessed as reduction in cell viability incubated for 72 hrs by MTT assay; conditions: Homo sapiens
[34] = test system: MC-38; experiment: Antitumor activity against mouse MC38 cells allografted in C57BL/6 mouse assessed as reduction in tumor volume at 5 to 10 mg/kg administered via oral gavage for 21 days relative to control; type: functional; design: scale not given: the % may be the effect or the level left; conditions: dose 5-10 mg/kg, time 21 day

T1 sequence (P35968 whole entry): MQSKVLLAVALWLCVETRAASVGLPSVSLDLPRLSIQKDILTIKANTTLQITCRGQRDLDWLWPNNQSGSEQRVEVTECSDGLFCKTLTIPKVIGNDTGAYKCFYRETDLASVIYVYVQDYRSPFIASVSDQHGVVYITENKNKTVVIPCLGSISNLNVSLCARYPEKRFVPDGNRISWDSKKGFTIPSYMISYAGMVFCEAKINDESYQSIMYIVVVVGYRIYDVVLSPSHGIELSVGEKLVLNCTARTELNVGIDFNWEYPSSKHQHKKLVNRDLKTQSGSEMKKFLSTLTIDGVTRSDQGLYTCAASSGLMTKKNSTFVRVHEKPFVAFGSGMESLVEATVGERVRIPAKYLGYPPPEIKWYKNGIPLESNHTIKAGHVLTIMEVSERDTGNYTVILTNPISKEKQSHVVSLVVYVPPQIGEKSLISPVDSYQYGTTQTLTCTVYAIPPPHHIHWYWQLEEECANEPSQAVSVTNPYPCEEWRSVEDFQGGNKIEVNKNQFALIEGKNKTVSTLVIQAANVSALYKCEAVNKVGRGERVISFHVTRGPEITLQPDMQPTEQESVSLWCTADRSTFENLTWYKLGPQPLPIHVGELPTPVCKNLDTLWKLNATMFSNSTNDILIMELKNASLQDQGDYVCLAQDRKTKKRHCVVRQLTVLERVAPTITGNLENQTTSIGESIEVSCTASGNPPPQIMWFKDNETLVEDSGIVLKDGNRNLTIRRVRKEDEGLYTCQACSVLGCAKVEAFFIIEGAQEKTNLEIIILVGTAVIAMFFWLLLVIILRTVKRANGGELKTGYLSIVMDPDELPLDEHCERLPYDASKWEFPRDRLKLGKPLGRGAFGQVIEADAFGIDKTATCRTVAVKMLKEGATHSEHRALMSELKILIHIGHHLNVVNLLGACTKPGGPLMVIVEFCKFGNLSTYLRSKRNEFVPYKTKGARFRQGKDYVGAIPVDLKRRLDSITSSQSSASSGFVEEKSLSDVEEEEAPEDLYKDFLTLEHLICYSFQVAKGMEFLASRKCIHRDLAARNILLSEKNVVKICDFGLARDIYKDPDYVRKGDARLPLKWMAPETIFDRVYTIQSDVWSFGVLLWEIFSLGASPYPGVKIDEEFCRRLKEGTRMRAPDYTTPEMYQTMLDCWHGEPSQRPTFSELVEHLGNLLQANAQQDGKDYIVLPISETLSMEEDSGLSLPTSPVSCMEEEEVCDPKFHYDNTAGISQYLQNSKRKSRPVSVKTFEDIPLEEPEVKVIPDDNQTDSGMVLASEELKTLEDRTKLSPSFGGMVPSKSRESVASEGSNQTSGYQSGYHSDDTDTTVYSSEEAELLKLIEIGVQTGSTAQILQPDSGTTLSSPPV
T2 sequence (P07333 whole entry): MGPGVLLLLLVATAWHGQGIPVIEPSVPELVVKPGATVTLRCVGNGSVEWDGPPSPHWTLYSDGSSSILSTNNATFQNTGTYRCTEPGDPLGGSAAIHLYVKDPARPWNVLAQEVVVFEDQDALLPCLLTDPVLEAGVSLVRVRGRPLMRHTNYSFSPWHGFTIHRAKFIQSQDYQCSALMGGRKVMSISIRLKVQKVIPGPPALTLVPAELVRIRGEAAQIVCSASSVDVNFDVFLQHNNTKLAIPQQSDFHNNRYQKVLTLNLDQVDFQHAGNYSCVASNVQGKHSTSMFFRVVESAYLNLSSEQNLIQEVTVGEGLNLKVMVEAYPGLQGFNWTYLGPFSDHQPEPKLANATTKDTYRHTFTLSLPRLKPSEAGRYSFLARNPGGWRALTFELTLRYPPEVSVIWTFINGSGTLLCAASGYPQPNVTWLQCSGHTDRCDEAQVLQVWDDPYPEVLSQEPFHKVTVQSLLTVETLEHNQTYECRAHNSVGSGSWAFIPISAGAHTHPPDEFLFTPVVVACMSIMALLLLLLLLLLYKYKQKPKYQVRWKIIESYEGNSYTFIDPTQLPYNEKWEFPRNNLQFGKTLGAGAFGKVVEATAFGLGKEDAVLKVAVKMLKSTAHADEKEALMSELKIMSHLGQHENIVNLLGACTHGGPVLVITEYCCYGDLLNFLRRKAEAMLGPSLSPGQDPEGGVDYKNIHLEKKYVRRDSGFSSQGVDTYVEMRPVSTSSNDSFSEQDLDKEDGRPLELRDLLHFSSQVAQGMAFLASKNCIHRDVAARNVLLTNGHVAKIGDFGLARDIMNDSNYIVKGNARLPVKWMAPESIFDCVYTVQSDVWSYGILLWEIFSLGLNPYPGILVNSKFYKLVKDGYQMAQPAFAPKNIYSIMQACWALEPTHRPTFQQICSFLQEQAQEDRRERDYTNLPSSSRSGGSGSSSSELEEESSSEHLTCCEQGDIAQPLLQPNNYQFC
Platelet-derived growth factor receptor beta, sequence (P09619 whole entry): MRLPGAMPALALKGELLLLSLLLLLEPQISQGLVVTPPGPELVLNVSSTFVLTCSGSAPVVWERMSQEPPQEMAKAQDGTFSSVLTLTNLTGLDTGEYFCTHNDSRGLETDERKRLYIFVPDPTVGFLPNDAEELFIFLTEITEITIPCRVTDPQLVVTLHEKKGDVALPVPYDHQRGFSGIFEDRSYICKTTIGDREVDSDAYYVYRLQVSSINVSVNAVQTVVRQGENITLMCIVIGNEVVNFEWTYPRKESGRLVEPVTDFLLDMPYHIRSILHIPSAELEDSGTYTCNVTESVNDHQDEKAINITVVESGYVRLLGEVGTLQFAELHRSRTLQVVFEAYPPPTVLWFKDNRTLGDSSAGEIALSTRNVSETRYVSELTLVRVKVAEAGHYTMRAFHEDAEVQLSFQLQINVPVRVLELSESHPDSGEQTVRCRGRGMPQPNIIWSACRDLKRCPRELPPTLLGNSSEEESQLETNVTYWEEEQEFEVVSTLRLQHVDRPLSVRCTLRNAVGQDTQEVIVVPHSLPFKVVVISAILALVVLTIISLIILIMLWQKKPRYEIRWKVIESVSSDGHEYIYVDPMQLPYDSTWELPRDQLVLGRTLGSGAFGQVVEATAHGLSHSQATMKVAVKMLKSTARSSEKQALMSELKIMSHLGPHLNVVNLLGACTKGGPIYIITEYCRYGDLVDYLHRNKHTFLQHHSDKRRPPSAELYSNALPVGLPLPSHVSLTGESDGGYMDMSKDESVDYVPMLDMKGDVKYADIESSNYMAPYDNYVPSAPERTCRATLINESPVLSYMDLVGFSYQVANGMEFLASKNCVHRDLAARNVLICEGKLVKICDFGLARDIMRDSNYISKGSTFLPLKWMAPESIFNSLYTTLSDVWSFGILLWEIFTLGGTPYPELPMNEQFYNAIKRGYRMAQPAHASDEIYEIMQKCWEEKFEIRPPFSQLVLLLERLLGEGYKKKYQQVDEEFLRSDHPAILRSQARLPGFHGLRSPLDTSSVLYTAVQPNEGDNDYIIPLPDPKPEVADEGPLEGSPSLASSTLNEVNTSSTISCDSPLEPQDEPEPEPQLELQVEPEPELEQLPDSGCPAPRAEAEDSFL
Vascular endothelial growth factor receptor 1, sequence (P17948 whole entry): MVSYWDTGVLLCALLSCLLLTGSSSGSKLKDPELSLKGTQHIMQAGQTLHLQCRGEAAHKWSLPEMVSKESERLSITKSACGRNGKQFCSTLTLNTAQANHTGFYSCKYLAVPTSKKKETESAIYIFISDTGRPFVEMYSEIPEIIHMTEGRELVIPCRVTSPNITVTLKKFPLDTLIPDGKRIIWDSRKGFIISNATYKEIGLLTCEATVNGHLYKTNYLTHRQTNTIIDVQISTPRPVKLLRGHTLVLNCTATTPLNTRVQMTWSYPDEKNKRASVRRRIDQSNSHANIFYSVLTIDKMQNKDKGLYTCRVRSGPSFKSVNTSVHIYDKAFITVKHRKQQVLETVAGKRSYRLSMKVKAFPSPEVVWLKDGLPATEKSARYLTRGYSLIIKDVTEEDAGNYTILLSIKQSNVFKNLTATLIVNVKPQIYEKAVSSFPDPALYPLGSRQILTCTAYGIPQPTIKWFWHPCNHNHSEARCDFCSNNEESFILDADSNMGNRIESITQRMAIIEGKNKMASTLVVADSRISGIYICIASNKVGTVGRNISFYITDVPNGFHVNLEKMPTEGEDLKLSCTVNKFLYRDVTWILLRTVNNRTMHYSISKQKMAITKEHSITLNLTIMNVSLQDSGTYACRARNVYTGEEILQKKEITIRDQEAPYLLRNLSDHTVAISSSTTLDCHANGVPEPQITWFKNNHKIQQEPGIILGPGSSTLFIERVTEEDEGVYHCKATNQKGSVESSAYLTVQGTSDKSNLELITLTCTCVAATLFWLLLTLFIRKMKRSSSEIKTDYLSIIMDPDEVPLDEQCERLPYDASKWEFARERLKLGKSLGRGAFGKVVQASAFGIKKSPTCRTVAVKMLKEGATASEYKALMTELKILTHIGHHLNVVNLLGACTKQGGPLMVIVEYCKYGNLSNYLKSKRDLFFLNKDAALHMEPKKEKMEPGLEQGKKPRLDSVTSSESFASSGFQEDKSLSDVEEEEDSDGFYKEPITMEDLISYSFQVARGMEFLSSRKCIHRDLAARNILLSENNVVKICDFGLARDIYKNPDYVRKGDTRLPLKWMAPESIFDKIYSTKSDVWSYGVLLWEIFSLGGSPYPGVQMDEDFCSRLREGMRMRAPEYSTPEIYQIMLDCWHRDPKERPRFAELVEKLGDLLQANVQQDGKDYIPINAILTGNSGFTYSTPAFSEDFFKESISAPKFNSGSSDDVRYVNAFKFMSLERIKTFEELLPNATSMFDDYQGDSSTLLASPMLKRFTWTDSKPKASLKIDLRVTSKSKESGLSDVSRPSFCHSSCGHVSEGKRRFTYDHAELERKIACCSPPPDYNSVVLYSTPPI

Compound: Cc1cccc(Cn2nc(C)c3c(NC(=O)c4csc5c(N)ncnc45)cccc32)n1
GI50 [3]: 80 nM

Compound: Cn1cc(-c2cc(Oc3ccc(NC(=O)N4CCC5(CCC5)C4=O)nc3)ccn2)cn1
bioavailability [9]: 100%

Compound: Cn1cc(-c2cc(Oc3ccc(NC(=O)N4CCC5(CCC(F)(F)CC5)C4=O)nc3)ccn2)cn1
bioavailability [9]: 100%

Compound: Cc1cccc(Cn2nc(C3CC3)c3c(NC(=O)c4cnc5cc(OCCN6CCN(C)CC6)ccn45)cccc32)n1 [ARRY-382]
ED50 [17]: 3 mg/kg

Compound: CC1(C)CC=C(c2nc(C3CC(C)(C)OC(C)(C)C3)ccc2NC(=O)c2nc(C#N)c[nH]2)CC1 [EDICOTINIB]
IC50 [18]: 20 nM
IC50 [19]: 190 nM

Compound: Cc1ccc(F)c(NC(=O)Nc2ccc(-c3cccc4[nH]nc(N)c34)cc2)c1 [LINIFANIB]
IC50 [20]: 30 nM
GI50 [21]: 4400 nM
IC50 at 48 h [22]: 8600 nM

Compound: O=C(Nc1ccc(OC(F)(F)F)cc1)c1sccc1NCc1ccnc2ccccc12 [OSI-930]
IC50 [23]: 15 nM
IC50 [24]: 15 nM
IC50 [25]: 15 nM

Compound: CCN(CC)CCNC(=O)c1c(C)[nH]c(/C=C2\C(=O)Nc3ccc(F)cc32)c1C [SUNITINIB]
IC50 [16]: 4.1 nM

Compound: Cc1cc2cc(Oc3ccnc(Nc4cccc(CS(=O)(=O)NCCN(C)C)c4)n3)ccc2[nH]1 [SURUFATINIB]
IC50 [28]: 4 nM
IC50 [29]: 1 nM
IC50 [30]: 1 nM
IC50 [31]: 79 nM
IC50 [32]: < 50 nM
IC50 [33]: < 50 nM

Compound: Cc1nc(-c2cnc(NC(C)C)n(C)c2=O)ccc1Oc1ccnc(-c2cnn(C)c2)c1 [VIMSELTINIB]
Activity [34]: 67%

Further lines, with some results ahead:

IC50 [1]: < 10 nM
IC50 [2]: < 10 nM
Compound: CNC(=O)c1cccc2cc(Oc3ccnc(NC(=O)c4ccc(N5C[C@@H](C)N[C@@H](C)C5)cc4)c3)ccc12

half-life [4]: > 2 h
Compound: COc1ccc(N(C(=O)Nc2c(C)cccc2C)c2cc(Nc3ccc(N4CCN(C)CC4)cc3)ncn2)c(OC)c1

fraction unbound [5]: 0.06
solubility [6]: 428 µM (≈ 257 µg/mL)
Compound: COc1ccc(N2C(=O)N(c3c(C)cccc3Cl)Cc3cnc(Nc4ccc(C5CCN(C)CC5)cc4OC)nc32)nc1

Kd [7]: < 1 nM
Kd [8]: < 1 nM
Compound: CN1CCN(c2ccc(C(=O)Nc3n[nH]c4cc(OCCOCc5ccc(C(F)(F)F)cc5)ccc34)cc2)CC1

bioavailability [10]: 106%
half-life [11]: 2.53 h
Compound: CNc1ccc(-c2cnc(Nc3cnc(C4CC4)nc3)cc2C)c2c1C(=O)NC2

IC50 [12]: 17.3 nM
Compound: COc1cc(OC)c(Cl)c(-c2ccc3c(NC(=O)c4ccc(N5CCNC(C)(C)C5)cc4)n[nH]c3n2)c1Cl

Kd [7]: < 100 nM
Compound: CCn1cc(OCC(F)(F)F)c(C(=O)Nc2ccc(Oc3ccnc4cc(OC)c(OC)cc34)cn2)n1
TGI [13]: >50%

IC50 [14]: 23.4 nM
IC50 [15]: 23.4 nM
Compound: Cn1cc(-c2cc(Cc3ccc(NC(=O)NC(=O)C(C)(C)C)nc3)ccn2)cn1

IC50 [16]: 93 nM
Compound: Cc1cc(NC(=O)c2cccc3cc(-c4cccc5[nH]nc(N)c45)ccc23)ccc1F

IC50 [26]: 26 nM
Compound: COc1ncc(F)cc1CNc1ccc(Cc2c[nH]c3ncc(C)cc23)c(F)n1 [PLX-5622]

IC50 [27]: 1 nM
Compound: CNC(=O)c1cc(Oc2ccc3nc(N[C@@H]4CCCC[C@H]4O)sc3c2)ccn1 [SOTULETINIB]
